The values that follow are results of earlier work, collected in patent publication US8980929B2, “Substituted seven-membered heterocyclic compounds as dipeptidyl peptidase-iv inhibitors for the treatment of diabetes” (Merck Sharp & Dohme Corp., priority 2010, dated 2015).

The subject of one series is cardiac allograft. Particulars: rats; doubled from day 7.
For a further series, the system named is hematopoiesis. Particulars: mouse, cyclophosphamide-induced neutropenia.
The next series has as its target DPP-4 (Homo sapiens (Human), UniProt P27487).

DPP-4, sequence (P27487 whole entry, species assumed): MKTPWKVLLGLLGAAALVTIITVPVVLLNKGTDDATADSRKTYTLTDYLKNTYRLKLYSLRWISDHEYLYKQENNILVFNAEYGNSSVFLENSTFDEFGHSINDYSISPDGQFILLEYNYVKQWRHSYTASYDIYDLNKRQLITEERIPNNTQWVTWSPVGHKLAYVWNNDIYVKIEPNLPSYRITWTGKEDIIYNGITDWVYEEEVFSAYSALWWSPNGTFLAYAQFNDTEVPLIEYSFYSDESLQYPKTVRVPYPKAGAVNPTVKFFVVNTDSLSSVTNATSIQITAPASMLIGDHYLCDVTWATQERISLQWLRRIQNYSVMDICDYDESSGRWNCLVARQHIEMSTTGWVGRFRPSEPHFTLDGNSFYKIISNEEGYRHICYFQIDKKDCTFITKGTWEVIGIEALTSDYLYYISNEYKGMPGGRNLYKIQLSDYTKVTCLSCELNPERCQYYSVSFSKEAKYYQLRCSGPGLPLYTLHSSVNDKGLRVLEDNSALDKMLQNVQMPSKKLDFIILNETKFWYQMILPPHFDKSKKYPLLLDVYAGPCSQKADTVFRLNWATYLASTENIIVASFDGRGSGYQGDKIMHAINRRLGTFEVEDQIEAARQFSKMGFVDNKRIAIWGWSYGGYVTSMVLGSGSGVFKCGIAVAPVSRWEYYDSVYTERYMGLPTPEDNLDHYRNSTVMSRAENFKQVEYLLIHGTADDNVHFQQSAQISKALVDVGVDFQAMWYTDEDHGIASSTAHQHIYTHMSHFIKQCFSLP

Take `CC(C)N1CCC(c2ccccc2)(c2ccccc2)CC1` [Prodipine, Pro-Pro-diphenyl-phosphonate]: the cardiac allograft survival in the series with cardiac allograft is recorded as 14 day.
Consider `CC(C)[C@H](N)C(=O)N1CCC[C@H]1B(O)O` [Val-Boro-Pro], for which the hematopoiesis result in the series on hematopoiesis is “stimulated hematopoiesis”.
Turning to diprotin A, the “degradation of GRF to GRF[3-44] in plasma” value on DPP-4 is listed as “prevented”.
